Consider 19 compounds from PubChem BioAssay (NCI).

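Step 1: Grow cells in 96-well plates. Step 2: Expose to compound for 48 hours at 5 concentrations. Step 3: Interpolate endpoints linearly; if unreached, use highest concentration. GI50: concentration for 50% inhibition of growth. TGI marks complete inhibition of growth.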

The first assay deals with SK-MEL-2 melanoma. Put plainly: NCI anticancer screen, dose series, 48 h.
For `C=C(Br)C(C)(Br)CCC(Br)C(C)(C)Cl` (configuration not stated), the TGI stood at 51.6 µM.
Still for that read-out and setting: next, `Cc1ccccc1S(=O)(=O)OC1NS(=O)(=O)c2ccccc21` (configuration not stated): above 100 µM.
In the case of `COc1cc2c3c(n(C)c(=O)c2cc1OC)-c1cc2c(cc1/C3=C\CCCN)OCO2`, the GI50 is 16.6 µM and the TGI was found to be 45 µM.
The matching figures for `COc1ccc(-c2nnc(COc3ccc(NC(=O)Nc4cc(C(F)(F)F)cc(C(F)(F)F)c4)cc3F)o2)cc1`: 2.66 µM and 5.82 µM.
The like results for `COc1cc(/C=C/c2cc(O)c(C(C)=O)c(O)c2)cc2c1O[C@]1(C)CC[C@@H](O)C(C)(C)[C@H]1C2` were, in that order, 7.87 µM and 51.6 µM.
`OC(c1nc2ccccc2[nH]1)C(O)C(O)C(O)c1nc2ccccc2[nH]1` (configuration not stated) displayed a TGI above 100 µM.
`Cc1cc(O)c(/C=N/C(=S)NCc2ccccc2)c(=O)o1` had a TGI above 100 µM.
As for `O=C(CSc1ccc(Cl)cc1)Nc1ccc(-c2nc3ccccc3s2)c(Cl)c1`, the GI50 was 3.82 µM and the TGI worked out at 15.7 µM.
Take `COc1cc2c3c(n(C)c(=O)c2cc1OC)-c1cc2c(cc1/C3=C\CCN)OCO2`: the GI50 is 6.11 µM and the TGI was 27 µM.

The subject of another assay is RPMI-8226 leukemia. The assay is described as follows: NCI anticancer screen, dose series, 48 h.
As for `CN(C(=O)c1ccc(C(F)(F)F)cc1)c1ccc(Oc2ccc3c(c2)cc(C(=O)N2CCN(Cc4ccc(OC(F)F)cc4)CC2)n3C)nc1`, the GI50 was 0.156 µM and the TGI is above 100 µM.
The like results for `Cc1cc(-c2ccc3nc(C4CCOCC4)n(CCOC(F)(F)F)c3c2)cn(C)c1=O` were, in that order, 0.13 µM and above 31.6 µM.
The compound `Nc1ncnc2c1nnn2C1OC(CO)C(O)C1O` (configuration not stated) yielded a TGI of 5.71 µM.
The same measure, in the same setting: next, `NC1(C(=O)OCc2ccccc2)CCCC1`: 68.2 µM.
Turning to `O=C(/C=C/c1ccc(Cl)cc1)c1ccc(Nc2ccnc3cc(Cl)ccc23)cc1`, the GI50 is 2.08 µM and the TGI is above 30.7 µM.
`COc1cc(C2c3cc4c(cc3OC(C)(O)C2C)OCO4)cc(OC)c1OC` (configuration not stated) displayed a TGI of 0.721 µM.
As to `COc1cc2c(c(OC)c1OC)-c1ccc(OC)c(=O)cc1C(NC(=O)c1ccc(N=[N+]=[N-])cc1)CC2` (configuration not stated), the TGI is 4.41 µM.
As for `C=C1C(=O)O[C@H]2[C@H]1CC/C(COC(=O)c1c[nH]c3ccccc13)=C\CC[C@@]1(C)O[C@@H]21`, the GI50 is 0.0404 µM and the TGI stood at 0.281 µM.
The like results for `CC(=O)[C@@]12O[C@@H]1CC1C3CCC4=CC(O)CCC4(C)C3CCC12C` (some centres not stated) were, in that order, 21.6 µM and 97.1 µM.
The matching figures for `CCN1CCN(c2nc(C)cc(N(CCNc3ccnc4cc(Cl)ccc34)Cc3ccc4c(c3)OCO4)n2)CC1`: 1.31 µM and 3.76 µM.
Regarding `C=C(Br)C(C)(Br)CCC(Br)C(C)(C)Cl` (configuration not stated), the TGI was 58.4 µM.
Same read-out and setting: next, `Cc1ccccc1S(=O)(=O)OC1NS(=O)(=O)c2ccccc21` (configuration not stated): above 100 µM.
`COc1ccc(-c2nnc(COc3ccc(NC(=O)Nc4cc(C(F)(F)F)cc(C(F)(F)F)c4)cc3F)o2)cc1`: the GI50 was 1.35 µM and the TGI came out at 4.2 µM.
On to `OC(c1nc2ccccc2[nH]1)C(O)C(O)C(O)c1nc2ccccc2[nH]1` (configuration not stated), for which the TGI was above 100 µM.
Take `O=C(CSc1ccc(Cl)cc1)Nc1ccc(-c2nc3ccccc3s2)c(Cl)c1`: the GI50 is 2.66 µM and the TGI is above 100 µM.
With `COc1cc2c3c(n(C)c(=O)c2cc1OC)-c1cc2c(cc1/C3=C\CCN)OCO2`, the GI50 is 0.061 µM and the TGI is 0.975 µM.

In another assay the test system is NCI-H226 lung. The assay is described as follows: NCI anticancer screen, dose series, 48 h.
In the case of `CN(C(=O)c1ccc(C(F)(F)F)cc1)c1ccc(Oc2ccc3c(c2)cc(C(=O)N2CCN(Cc4ccc(OC(F)F)cc4)CC2)n3C)nc1`, the GI50 was 1.44 µM and the TGI is above 100 µM.
`Cc1cc(-c2ccc3nc(C4CCOCC4)n(CCOC(F)(F)F)c3c2)cn(C)c1=O` had a TGI of 8.47 µM.
Same read-out and setting: next, `Nc1ncnc2c1nnn2C1OC(CO)C(O)C1O` (configuration not stated): 12 µM; `NC1(C(=O)OCc2ccccc2)CCCC1`: 91.7 µM.
As to `O=C(/C=C/c1ccc(Cl)cc1)c1ccc(Nc2ccnc3cc(Cl)ccc23)cc1`, the GI50 is above 100 µM and the TGI was above 100 µM.
In the case of `COc1cc(C2c3cc4c(cc3OC(C)(O)C2C)OCO4)cc(OC)c1OC` (configuration not stated), the TGI amounted to 13.5 µM.
`COc1cc2c(c(OC)c1OC)-c1ccc(OC)c(=O)cc1C(NC(=O)c1ccc(N=[N+]=[N-])cc1)CC2` (configuration not stated) yielded a TGI of 3.78 µM.
On to `C=C1C(=O)O[C@H]2[C@H]1CC/C(COC(=O)c1c[nH]c3ccccc13)=C\CC[C@@]1(C)O[C@@H]21`, for which the GI50 was 0.445 µM and the TGI was found to be 1.96 µM.
For `CC(=O)[C@@]12O[C@@H]1CC1C3CCC4=CC(O)CCC4(C)C3CCC12C` (some centres not stated), the GI50 is 75.9 µM and the TGI is above 100 µM.
The like results for `CCN1CCN(c2nc(C)cc(N(CCNc3ccnc4cc(Cl)ccc34)Cc3ccc4c(c3)OCO4)n2)CC1` were, in that order, 15 µM and 33.6 µM.
`C=C(Br)C(C)(Br)CCC(Br)C(C)(C)Cl` (configuration not stated) displayed a TGI of 81.3 µM.
In the case of `COc1cc2c3c(n(C)c(=O)c2cc1OC)-c1cc2c(cc1/C3=C\CCCN)OCO2`, the GI50 was 9.33 µM and the TGI was 31.6 µM.
For `COc1ccc(-c2nnc(COc3ccc(NC(=O)Nc4cc(C(F)(F)F)cc(C(F)(F)F)c4)cc3F)o2)cc1`, the GI50 is 2.63 µM and the TGI was found to be 9.69 µM.
On to `COc1cc(/C=C/c2cc(O)c(C(C)=O)c(O)c2)cc2c1O[C@]1(C)CC[C@@H](O)C(C)(C)[C@H]1C2`, for which the GI50 is 16.8 µM and the TGI turned out to be 54.2 µM.
`OC(c1nc2ccccc2[nH]1)C(O)C(O)C(O)c1nc2ccccc2[nH]1` (configuration not stated) had a TGI above 100 µM.
On the same count and under the same terms, next, `Cc1cc(O)c(/C=N/C(=S)NCc2ccccc2)c(=O)o1`: above 100 µM.
Regarding `O=C(CSc1ccc(Cl)cc1)Nc1ccc(-c2nc3ccccc3s2)c(Cl)c1`, the GI50 was 4.9 µM and the TGI was determined as 64.1 µM.
Consider `COc1cc2c3c(n(C)c(=O)c2cc1OC)-c1cc2c(cc1/C3=C\CCN)OCO2`, for which the GI50 was 0.517 µM and the TGI came out at 2.42 µM.
